Legend:
Conditions in all cases: incubation time: 72 h
BT-549 [1] = assay: normalised response (% of control), CellTiter-Glo; higher = more viable cells (100 = DMSO, 0 = benzethonium chloride kill control)
Procedure, shortened: (§1)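 Each value is the plate-normalised signal at one concentration of the series. Breast cancer cell lines (20 µl suspension) were incubated 72 h in 384-well plates with compound at 5 concentrations in 10-fold steps over a compound-specific 10,000-fold range. CellTox Green and then CellTiter-Glo were read, and each plate was scaled to 0.1 % DMSO (100) and a positive kill control (0).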

SK-BR-3 [2] = assay: as above
Procedure, shortened: as §1

MDA-MB-436 [3] = assay: as above
Procedure, shortened: as §1

MCF-10A = assay: as above
Procedure, shortened: as §1

MDA-MB-231 [4] = assay: as above
Procedure, shortened: as §1

HCC1143 [5] = assay: as above
Procedure, shortened: as §1

HDQ-P1 [6] = assay: as above
Procedure, shortened: as §1

HCC1599 [7] = assay: as above
Procedure, shortened: as §1

HCC1937 [8] = assay: as above
Procedure, shortened: as §1

MDA-MB-468 [9] = assay: as above
Procedure, shortened: as §1

CAL-120 [10] = assay: as above
Procedure, shortened: as §1

Hs578T [11] = assay: as above
Procedure, shortened: as §1

CAL-51 [12] = assay: as above
Procedure, shortened: as §1

DU-4475 [13] = assay: as above
Procedure, shortened: as §1

MDA-MB-453 [14] = assay: as above
Procedure, shortened: as §1

BT-474 [15] = assay: as above
Procedure, shortened: as §1

MFM-223 [16] = assay: as above
Procedure, shortened: as §1

CAL-148 [17] = assay: as above
Procedure, shortened: as §1

CAL-85-1 [18] = assay: as above
Procedure, shortened: as §1

BT-549 [19] = assay: normalised viability (% of control), CellTiter-Blue; higher = more viable cells (100 = DMSO, 0 = benzethonium chloride kill control)
Protocol: (§2)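 DSRT, CellTiter-Blue viability, 72 h incubation. Signal is normalised to DMSO and benzethonium chloride controls. Value is the normalised response at dose 1.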

SK-BR-3 [20] = assay: as above
Protocol: as §2

MDA-MB-436 [21] = assay: as above
Protocol: as §2

MDA-MB-231 [22] = assay: as above
Protocol: as §2

HCC1143 [23] = assay: as above
Protocol: as §2

HDQ-P1 [24] = assay: as above
Protocol: as §2

HCC1599 [25] = assay: as above
Protocol: as §2

HCC1937 [26] = assay: as above
Protocol: as §2

MDA-MB-468 [27] = assay: as above
Protocol: as §2

CAL-120 [28] = assay: as above
Protocol: as §2

Hs578T [29] = assay: as above
Protocol: as §2

CAL-51 [30] = assay: as above
Protocol: as §2

DU-4475 [31] = assay: as above
Protocol: as §2

MDA-MB-453 [32] = assay: as above
Protocol: as §2

BT-474 [33] = assay: as above
Protocol: as §2

MFM-223 [34] = assay: as above
Protocol: as §2

CAL-148 [35] = assay: as above
Protocol: as §2

CAL-85-1 [36] = assay: as above
Protocol: as §2

| Compound | normalised response (BT-549 [1]) | normalised response (SK-BR-3 [2]) | normalised response (MDA-MB-436 [3]) | normalised response (MCF-10A) | normalised response (MDA-MB-231 [4]) | normalised response (HCC1143 [5]) | normalised response (HDQ-P1 [6]) | normalised response (HCC1599 [7]) | normalised response (HCC1937 [8]) | normalised response (MDA-MB-468 [9]) | normalised response (CAL-120 [10]) | normalised response (Hs578T [11]) | normalised response (CAL-51 [12]) | normalised response (DU-4475 [13]) | normalised response (MDA-MB-453 [14]) | normalised response (BT-474 [15]) | normalised response (MFM-223 [16]) | normalised response (CAL-148 [17]) | normalised response (CAL-85-1 [18]) | normalised viability (BT-549 [19]) | normalised viability (SK-BR-3 [20]) | normalised viability (MDA-MB-436 [21]) | normalised viability (MDA-MB-231 [22]) | normalised viability (HCC1143 [23]) | normalised viability (HDQ-P1 [24]) | normalised viability (HCC1599 [25]) | normalised viability (HCC1937 [26]) | normalised viability (MDA-MB-468 [27]) | normalised viability (CAL-120 [28]) | normalised viability (Hs578T [29]) | normalised viability (CAL-51 [30]) | normalised viability (DU-4475 [31]) | normalised viability (MDA-MB-453 [32]) | normalised viability (BT-474 [33]) | normalised viability (MFM-223 [34]) | normalised viability (CAL-148 [35]) | normalised viability (CAL-85-1 [36]) |
| --- | --- | --- | --- | --- | --- | --- | --- | --- | --- | --- | --- | --- | --- | --- | --- | --- | --- | --- | --- | --- | --- | --- | --- | --- | --- | --- | --- | --- | --- | --- | --- | --- | --- | --- | --- | --- | --- |
| N.N.[Cl][Pt][Cl] [Cisplatin] (1 nM) | 98.7% | 98.7% | 96.7% | 95.4% | 100% | 90.8% | 101% | 102% | 101% | 94.9% | 101% | 101% | 74.7% | 94.2% | 99.3% | 101% | 99.4% | 90.5% | 94.9% | 92% | 100% | 105% | 103% | 98.2% | 106% | 96.4% | 90.5% | 98.2% | 85.1% | 121% | 113% | 107% | 111% | 109% | 93.7% | 118% | 92.1% |
| CN(C)/N=N/c1[nH]cnc1C(N)=O [Dacarbazine] (1 nM) | 101% | 99.9% | 122% | 100% | 105% | 104% | 96% | 96.7% | 101% | 102% | 94.7% | 107% | 99.1% | 104% | 116% | 101% | 103% | 100% | 96.7% | 108% | 106% | 114% | 94.8% | 92.2% | 105% | 81.7% | 108% | 103% | 89.3% | 106% | 87.7% | 104% | 96.5% | 99.6% | 101% | 99.7% | 90.2% |
| Cc1ccc(-n2nc(C(C)(C)C)cc2NC(=O)Nc2ccc(OCCN3CCOCC3)c3ccccc23)cc1 [Doramapimod] (1 nM) | 107% | 79.2% | 93.8% | 78.8% | 97.9% | 98.3% | 93% | 81.5% | 97.4% | 95% | 93.3% | 95.5% | 83.7% | 97.6% | 95% | 95.5% | 92.4% | 88.6% | 91.3% | 99.7% | 108% | 92.2% | 102% | 97.3% | 64.3% | 99.3% | 87% | 105% | 89.9% | 101% | 112% | 105% | 104% | 112% | 98.8% | 97.8% | 100% |
| C#Cc1cccc(Nc2ncnc3cc(OCCOC)c(OCCOC)cc23)c1 [Erlotinib] (1 nM) | 106% | 100% | 131% | 115% | 101% | 101% | 100% | 97.1% | 104% | 93% | 96.1% | 106% | 107% | 106% | 116% | 101% | 105% | 103% | 102% | 111% | 108% | 99.6% | 107% | 86.6% | 102% | 80.1% | 102% | 107% | 85% | 84% | 98.2% | 89% | 99.8% | 95% | 98.8% | 97.8% | 95.3% |
| COc1cc([C@@H]2c3cc4c(cc3[C@@H](O[C@@H]3O[C@@H]5CO[C@@H](C)O[C@H]5[C@H](O)[C@H]3O)[C@H]3COC(=O)[C@H]23)OCO4)cc(OC)c1O [Etoposide] (1 nM) | 114% | 109% | 128% | 110% | 113% | 110% | 105% | 107% | 98.8% | 101% | 101% | 105% | 134% | 106% | 106% | 103% | 107% | 104% | 98.6% | 96.9% | 97.5% | 105% | 90.8% | 107% | 96.3% | 121% | 86% | 98% | 98.1% | 97.3% | 87.8% | 112% | 103% | 91.5% | 100% | 110% | 99% |
| O=P1(NCCCl)OCCCN1CCCl (stereo unspecified) [Ifosfamide] (1 nM) | 102% | 93.3% | 97.8% | 92.1% | 97% | 89.7% | 98.1% | 94.2% | 94.8% | 95.3% | 92.2% | 98.8% | 78.5% | 93.7% | 90.3% | 94.2% | 87.2% | 99.4% | 93.9% | 122% | 98.3% | 95.2% | 122% | 88.9% | 119% | 109% | 87.6% | 124% | 89.7% | 55.3% | 110% | 116% | 107% | 86.7% | 93.8% | 118% | 84.3% |
| CC1(C)NC(=O)N(c2ccc([N+](=O)[O-])c(C(F)(F)F)c2)C1=O [Nilutamide] (1 nM) | 103% | 111% | 102% | 106% | 97.4% | 101% | 101% | 109% | 98.4% | 106% | 99.1% | 101% | 93.2% | 105% | 105% | 108% | 103% | 111% | 100% | 95.1% | 99.1% | 123% | 131% | 99.5% | 125% | 85.1% | 114% | 108% | 86.6% | 126% | 100% | 115% | 112% | 95.7% | 100% | 103% | 96% |
| Cc1ccc(C(=O)Nc2ccc(CN3CCN(C)CC3)c(C(F)(F)F)c2)cc1C#Cc1cnc2cccnn12 [Ponatinib] (0.1 nM) | 109% | 101% | 105% | 102% | 99.3% | 95.9% | 104% | 99.4% | 95.3% | 105% | 103% | 102% | 95.4% | 101% | 101% | 102% | 98% | 105% | 103% | 98.3% | 91.9% | 103% | 107% | 103% | 109% | 104% | 87.3% | 104% | 97.1% | 111% | 87.5% | 97.2% | 92.5% | 90.1% | 103% | 98.5% | 101% |
